Source: ChEMBL document CHEMBL1201862, “PubChem BioAssay data set” (2004)
Activity calls are given as the source filed them. For most assays here, no stated cut-off is given here; in the data, actives have a measured EC50 and inactives only a lower limit.

How the values were obtained:
cells [1] = type: functional, cell-based
cells [2] = type: functional, cell-based; remark: listed apart in the source
[3] = biological target: Luciferin 4-monooxygenase (Photinus pyralis, UniProt P08659); assay: inhibition of purified Photinus pyralis luciferase – biochemical, luminescence, dose response (AID 1891)
[4] = Luminescence Cell-Based Dose Confirmation HTS to Identify Inhibitors of Platelet Dense Granule Release. [Related pubchem assays: 1663 (Primary HTS), 1678 (Summary of Project)]; type: functional
[5] = DRD fibroblast viability loss – cell-based, non-viral oncogenic, luminescence, dose response (AID 1934); type: functional; settings: Homo sapiens
BJ [6] = assay: cells; type: functional, cell-based; settings: Homo sapiens
BJ [7] = assay: BJ-TERT-LT-ST fibroblast viability loss – cell-based, RAS-independent, luminescence, dose response (AID 1935); type: functional; settings: Homo sapiens;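 further: BJ fibroblasts immortalized with TERT plus LT and ST oncogenes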
BJ [8] = assay: BJ-TERT fibroblast viability loss – cell-based, RAS-independent, luminescence, dose response (AID 1933); type: functional; settings: Homo sapiens
[9] = biological target: T1, Corticotropin-releasing factor receptor 2/Corticotropin-releasing factor-binding protein (Homo sapiens, UniProt P24387+Q13324); assay: activators of CRF receptor 2 with binding protein – uHTS hits, confirmation (AID 602473); type: functional; settings: read-out: EC50_Mean
T1 sequence (Q13324 whole entry): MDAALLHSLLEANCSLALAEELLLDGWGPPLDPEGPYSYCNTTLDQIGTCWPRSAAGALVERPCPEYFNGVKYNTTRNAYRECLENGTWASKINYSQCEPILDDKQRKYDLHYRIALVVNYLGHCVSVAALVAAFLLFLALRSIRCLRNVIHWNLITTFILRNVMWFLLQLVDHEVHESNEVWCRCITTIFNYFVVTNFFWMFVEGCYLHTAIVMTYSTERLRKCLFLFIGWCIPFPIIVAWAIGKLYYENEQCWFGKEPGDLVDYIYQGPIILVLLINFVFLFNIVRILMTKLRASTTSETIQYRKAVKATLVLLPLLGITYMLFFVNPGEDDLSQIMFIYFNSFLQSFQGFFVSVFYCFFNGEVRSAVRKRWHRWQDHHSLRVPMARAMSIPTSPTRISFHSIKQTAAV
T1 sequence (P24387 whole entry): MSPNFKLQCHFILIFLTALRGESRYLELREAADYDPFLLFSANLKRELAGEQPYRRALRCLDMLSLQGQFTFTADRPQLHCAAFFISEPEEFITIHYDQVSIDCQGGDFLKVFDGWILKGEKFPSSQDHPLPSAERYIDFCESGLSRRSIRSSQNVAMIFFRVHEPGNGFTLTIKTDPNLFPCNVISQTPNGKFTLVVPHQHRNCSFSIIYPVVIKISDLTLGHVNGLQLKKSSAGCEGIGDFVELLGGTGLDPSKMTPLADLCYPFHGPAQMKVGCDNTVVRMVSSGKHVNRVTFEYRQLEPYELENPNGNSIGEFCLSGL

[10] = system: Streptococcus sp. 'group A'; assay: Streptococcus pyogenes SK(-)GAS viability under kanamycin – luminescence, BacTiterGlo, confirmation, counter-screen for streptokinase expression inhibitor project, dose response (AID 1900); type: functional, organism-based
Streptokinase A = biological target: T2, Streptokinase A (Streptococcus pyogenes serotype M1, UniProt P10520); assay: viability-normalized secreted streptokinase activity reduction – plasminogen activation absorbance, OD405, dose response (AID 1914); type: functional, Streptococcus pyogenes M1 GAS;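 further: secreted streptokinase activity via plasminogen activation per viability signal from cell pellet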
T2 sequence (P10520 whole entry): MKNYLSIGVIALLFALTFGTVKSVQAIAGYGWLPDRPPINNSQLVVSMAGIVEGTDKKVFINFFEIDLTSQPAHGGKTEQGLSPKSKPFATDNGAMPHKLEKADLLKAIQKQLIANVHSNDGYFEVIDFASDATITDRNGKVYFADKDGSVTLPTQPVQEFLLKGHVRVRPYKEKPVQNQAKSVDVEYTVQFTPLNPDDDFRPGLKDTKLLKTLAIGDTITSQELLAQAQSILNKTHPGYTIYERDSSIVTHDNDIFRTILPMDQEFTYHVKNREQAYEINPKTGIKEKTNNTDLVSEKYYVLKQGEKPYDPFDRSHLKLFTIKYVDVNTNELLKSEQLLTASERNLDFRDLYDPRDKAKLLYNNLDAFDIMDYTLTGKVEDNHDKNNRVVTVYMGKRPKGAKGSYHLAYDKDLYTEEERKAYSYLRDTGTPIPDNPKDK

[11] = biological target: T1, Corticotropin-releasing factor receptor 2/Corticotropin-releasing factor-binding protein; assay: Dose Response confirmation of uHTS hits for small molecule antagonists of the CRF-binding protein and CRF-R2 receptor complex.; type: functional; settings: read-out: IC50_Mean
Streptococcus = assay: GAS UMAA2166 growth inhibition – luminescence, BacTiterGlo, counter-screen for streptokinase expression inhibitor project, dose response (AID 1915); type: functional, organism-based;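 further: potency for reduction of bacterial viability or growth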
[12] = Luminescence Cell-Based Dose Response HTS to Identify Inhibitors of 5'UTR Stem-Loop Driven Prion Protein mRNA Translation in H4 Neuroglioblastoma Cells. [Related pubchem assays: 1827 (Project Summary), 1813 (Primary HTS)]; type: functional
[13] = luciferase reporter signal suppression in cells – H4 neuroglioma cells, luminescence, dose response (AID 1990); type: functional, cell-based
[14] = alpha-synuclein stem-loop luciferase translation blockers – H4 neuroglioma cells, luminescence, confirmation (AID 1988); type: functional, cell-based
Cytochrome P450 2C9 = Cytochrome P450 2C9 (Homo sapiens, UniProt P11712)
Chain of Cytochrome P450 2C9 (P11712 whole entry): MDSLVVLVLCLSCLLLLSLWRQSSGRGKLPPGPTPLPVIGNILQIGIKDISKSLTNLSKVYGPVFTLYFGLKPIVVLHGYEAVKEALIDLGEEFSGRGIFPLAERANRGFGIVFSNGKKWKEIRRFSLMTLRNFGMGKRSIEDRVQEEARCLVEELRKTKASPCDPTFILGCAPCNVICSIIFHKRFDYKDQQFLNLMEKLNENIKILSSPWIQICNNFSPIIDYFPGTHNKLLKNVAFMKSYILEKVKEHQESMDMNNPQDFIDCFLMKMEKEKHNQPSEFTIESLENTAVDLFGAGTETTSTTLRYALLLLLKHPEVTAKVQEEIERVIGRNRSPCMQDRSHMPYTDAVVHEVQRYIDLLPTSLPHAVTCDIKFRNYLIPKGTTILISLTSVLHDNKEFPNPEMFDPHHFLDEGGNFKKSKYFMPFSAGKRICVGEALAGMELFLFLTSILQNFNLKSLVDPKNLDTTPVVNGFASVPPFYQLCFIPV

Chain of Luciferin 4-monooxygenase (P08659 whole entry): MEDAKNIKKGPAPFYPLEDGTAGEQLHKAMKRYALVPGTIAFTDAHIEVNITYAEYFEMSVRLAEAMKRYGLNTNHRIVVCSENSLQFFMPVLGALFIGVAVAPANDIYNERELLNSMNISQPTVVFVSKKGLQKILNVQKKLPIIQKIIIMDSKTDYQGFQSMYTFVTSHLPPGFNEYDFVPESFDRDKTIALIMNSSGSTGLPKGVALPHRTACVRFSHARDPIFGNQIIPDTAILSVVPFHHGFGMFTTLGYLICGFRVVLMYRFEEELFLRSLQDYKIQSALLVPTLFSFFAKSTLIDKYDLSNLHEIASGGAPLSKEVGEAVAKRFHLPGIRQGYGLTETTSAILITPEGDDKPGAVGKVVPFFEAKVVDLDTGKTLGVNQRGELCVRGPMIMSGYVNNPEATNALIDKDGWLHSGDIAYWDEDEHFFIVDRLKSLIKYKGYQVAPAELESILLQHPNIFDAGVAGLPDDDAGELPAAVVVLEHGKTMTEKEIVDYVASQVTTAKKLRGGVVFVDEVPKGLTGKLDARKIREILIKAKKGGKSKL

O=C(Cn1c(SCC(=O)N2CCCc3ccccc32)nc2ccccc21)N1CCCC1
EC50 (cells [1]): > 350 µM (not active)
EC50 (cells [2]): > 350 µM (not active)

CCCc1nc2oc3c(=O)nc[nH]c3c2c2c1CCCC2
EC50 [3]: > 112 µM (not active)

CCCc1nc2oc3c(O)ncnc3c2c2c1CCCC2
EC50 [4]: > 112 µM (not active)

CCOc1ccc(NC(=O)CSc2nnc(Cn3cnc4ccccc43)n2C)cc1
EC50 (cells [1]): > 350 µM (not active)
EC50 (cells [2]): > 350 µM (not active)

CC(=O)n1c(Cl)c(NC(=O)CCl)c2ccccc21
EC50 [5]: 29.7 µM (active)
EC50 (BJ [6]): > 150 µM (not active)
EC50 (BJ [7]): > 150 µM (not active)
EC50 (BJ [8]): 25.1 µM (active)

CCCCCCC1CCC(c2nc(-c3ccncc3)no2)CC1 (configuration not stated)
EC50 (cells [1]): > 350 µM (not active)
EC50 (cells [2]): > 350 µM (not active)

Cc1ccccc1NS(=O)(=O)c1ccc(C)c(C(=O)N2CCOCC2)c1
EC50 [9]: > 53 µM (inactive)
EC50 [10]: > 150 µM (not active)
EC50 (Streptokinase A): > 150 µM (not active)
IC50 [11]: > 47.1 µM (inactive)
EC50 (Streptococcus): > 150 µM (not active)

CC(NC(=O)CCc1nc2cc(S(=O)(=O)N3CCOCC3)ccc2n1C)c1ccc(S(N)(=O)=O)cc1 (configuration not stated)
EC50 [3]: > 112 µM (not active)
EC50 [4]: 41.7 µM (active)

Cc1nc2c(s1)sc1ccccc12
EC50 [9]: > 53 µM (inactive)
IC50 [11]: > 47.1 µM (inactive)

CCOC(=O)C1=C(CNCc2ccccc2Cl)NC(=O)NC1c1cccc([N+](=O)[O-])c1 (configuration not stated)
EC50 [3]: > 112 µM (not active)
EC50 [4]: > 112 µM (not active)

Cc1cc(C)n2nc(/C(C#N)=C/c3ccccc3)c(C#N)c2n1
EC50 [9]: > 53 µM (inactive)
IC50 [11]: > 47.1 µM (inactive)

Cc1nnc(N2CCC(C(=O)NC3CCC(C)CC3)CC2)c2nn(-c3ccc(Cl)cc3)c(C)c12 (configuration not stated)
EC50 [12]: > 120 µM (not active)
EC50 [13]: 14.7 µM (active)
EC50 [14]: > 120 µM (not active)

COC(=O)C(NC(=O)c1c(C)nn(C)c1Cl)c1ccccc1 (configuration not stated)
EC50 (cells [1]): > 350 µM (not active)
EC50 (cells [2]): > 350 µM (not active)

Cn1nnc(NC(=O)c2cccc([N+](=O)[O-])c2)n1
EC50 (cells [1]): > 350 µM (not active)
EC50 (cells [2]): > 350 µM (not active)

Cc1ccc(S(=O)(=O)Nc2cc(-c3nn(C)c(=O)c4ccccc34)ccc2N2CCOCC2)cc1
EC50 [12]: > 120 µM (not active)
EC50 [13]: > 60 µM (not active)
EC50 [14]: 10.8 µM (active)

CCCC1(C(=O)OC)NC(c2ccco2)C2C(=O)N(C)C(=O)C21 (configuration not stated)
EC50 [12]: > 120 µM (not active)
EC50 [13]: > 120 µM (not active)
EC50 [14]: > 120 µM (not active)

CCOC(=O)C(CC)(CC)C(=O)/C=C/c1cccc(Br)c1
EC50 [5]: 9.57 µM (active)
EC50 (BJ [6]): 16.6 µM (active)
EC50 (BJ [7]): 10.7 µM (inconclusive)
EC50 (BJ [8]): 10 µM (active)

CCOC(=O)c1c(C)[nH]c(C)c1S(=O)(=O)N1CCN(c2ccc([N+](=O)[O-])cc2)CC1
EC50 [12]: > 120 µM (not active)
EC50 [13]: 23 µM (active)
EC50 [14]: > 120 µM (not active)

Cc1ccc(N(C(=O)Cn2nnc(-c3ccccc3)n2)C(C(=O)NC2CCCCC2)c2ccccn2)cc1C (configuration not stated)
EC50 [9]: > 53 µM (inactive)
IC50 [11]: > 47.1 µM (inactive)

CCOc1ccc(N(CC(=O)NC2CCC(C)CC2)S(=O)(=O)c2c(C)noc2C)cc1 (configuration not stated)
EC50 [9]: > 53 µM (inactive)
IC50 [11]: > 47.1 µM (inactive)

CC(C)COc1ccc(C(=O)Nc2ccc([N+](=O)[O-])cc2)cc1
EC50 (cells [1]): > 350 µM (not active)
EC50 (cells [2]): > 350 µM (not active)

O=[N+]([O-])c1ccc(N2CCN(S(=O)(=O)c3ccccc3)CC2)cc1NCC1CCCO1 (configuration not stated)
EC50 [12]: 40.6 µM (active)
EC50 [13]: 18.3 µM (active)
EC50 [14]: 19.2 µM (active)

CCc1nc2scc(-c3cccs3)c2c(=O)o1
EC50 [3]: > 112 µM (not active)
EC50 [4]: > 112 µM (not active)

COc1ccc(N2CCN(C(=O)c3csc4ccccc34)CC2)cc1
EC50 [9]: > 53 µM (inactive)
IC50 [11]: > 47.1 µM (inactive)

C=CCNC(=S)N/N=C/c1ccc(OCc2ccccc2)cc1
EC50 [9]: > 53 µM (inactive)
AC50 (Cytochrome P450 2C9): 15.8 µM (inconclusive)
IC50 [11]: > 47.1 µM (inactive)

C/C(=N\NC(=O)c1ccc2c(c1)OCCO2)c1ccccc1
EC50 [3]: 12.8 µM (active)
EC50 [4]: 2.98 µM (active)

Cc1ccc2c(c1)Oc1ccccc1N=C2
EC50 [9]: > 53 µM (inactive)
IC50 [11]: > 47.1 µM (inactive)

CCOc1ccc(/C=N/NC(=O)CN2CCCCCCC2)cc1
EC50 [9]: > 53 µM (inactive)
IC50 [11]: > 47.1 µM (inactive)
